# Test results: US8188148B2, “Substituted 1,3-diphenylpropane derivatives, preparations and uses thereof” (Genfit, priority 2006, dated 2012)
# Columns and labels:
# ApoE2/E2 mouse = assay: In vivo evaluation on ApoE2/E2 mouse: body weight and plasma lipids; conditions: E2/E2 mouse, 5, 10, and 50 mpk per os, 8 days, vs control
# Procedure: The dyslipidemic E2/E2 mouse's body weight, rates of total cholesterol, triglycerides and of plasma free fatty acids are measured after 8 days of a per os treatment with the compounds according to the invention.
# The murine model used is the ApoE2/E2 mouse, a transgenic mouse having the human apolipoprotein E isoform E2 (Sullivan P M et al., 1998). In human, this apolipoprotein, a constituent of low and very low density lipoproteins (LDL-VLDL), is present in three isoforms E2, E3, and E4. The E2 form presents a mutation affecting the amino acid of position 158, which considerably weakens the affinity of this protein for the receptors to LDL receptors. Accordingly, the VLDL clearance is nearly non-existent. An accumulation of low-density lipoproteins then occurs along with a mixed hyperlipidemia known as of type III (high cholesterol and triglycerides rates).
# The ApoE2/E2 transgenic mice were kept on a 12 hour/12 hour light/dark cycle at a constant temperature of 20±3° C. After a one week acclimatization period, the mice were weighed and divided into groups of 6 animals selected so as to render uniform the distribution of their body weights and plasma lipid rates, determined before the experiment. The tested compounds were suspended in carboxymethylcellulose (Sigma C4888) and administered by intra-gastric tube feeding, once a day for 8 days at the chosen dosage. The animals had free access to food and water (standard diet). Taking of food and weight gain are recorded throughout the experiment. At the end of the experiment, the animals were anesthetized after a 4 hour fast, a blood sample was taken using (EDTA) anticoagulant, then the mice were weighed and euthanized. The plasma was prepared by centrifugation at 3000 rotations/minute for 20 minutes. The samples were kept at +4° C.
# Plasma lipid concentrations (total cholesterol and triglycerides) are measured by enzymatic dosages (bioMérieux-Lyon-France) according to the provider's recommendations.
# Plasma cholesterol and triglycerides rates are measured after 8 days of a per os treatment with the compounds according to the invention. These rates are compared with those obtained with control animals (not treated with compounds according to the invention).
# Low-density lipoproteins (VLDL and LDL) are precipitated by Phosphotungstate. The precipitate is eliminated by centrifugation. HDL cholesterol present in the supernatant is measured by enzymatic dosages (bioMérieux-Lyon-France) in accordance with the provider's recommendations.
# C57BI6 mouse = assay: In vivo evaluation on C57BI6 mouse: body weight and plasma lipids; conditions: C57BI6 mouse, 3, 10, and 30 mpk per os, 14 days, vs control
# Procedure: The effect of the compounds according to the invention is evaluated in vivo on the C57BI6 mouse by measuring the body weight evolution, the plasma HDL cholesterol and triglyceride levels, after 14 days of a per os treatment with the compounds according to the invention.
# Female C57BI6 mice were kept on a 12 hour/12 hour light/dark cycle at a constant temperature of 20±3° C. After a one week acclimatization period, the mice were weighed and divided into groups of 6 animals selected such as the distribution of body weight and of plasma lipid rate, determined before the experiment, was uniform. The tested compounds were suspended in carboxymethylcellulose (Sigma C4888) and administered to the animals by gastric gavage, once a day for 14 days at the chosen doses. The animals had free access to food and water (standard diet). Taking of food and weight gain are recorded throughout the experiment. At the end of the experiment, after a 4 hour fast, the animals were anesthetized and a blood sample was taken on anticoagulant (EDTA). Then the mice were weighed and euthanized. The plasma was separated by centrifugation at 3000 rotations/minute for 20 minutes. The samples were kept at +4° C. Hepatic tissue samples were removed, frozen in liquid nitrogen, and then kept at −80° C. for later analyses.
# Low-density lipoproteins (VLDL and LDL) are precipitated by Phosphotungstate. The precipitate is eliminated by centrifugation. HDL-cholesterol present in the supernatant is measured by enzymatic assays (bioMérieux-Lyon-France) in accordance with the provider's recommendations.
# Plasma triglyceride concentrations were measured by enzymatic assays (bioMérieux-Lyon-France) according to the provider's recommendations.
structure (smiles),measurement,setting,value
"Cc1cc(CCC(=O)c2ccc(OC(F)(F)F)cc2)cc(C)c1OC(C)(C)C(=O)O [Compound 1, 2-[2,6-dimethyl-4-[3-[4-(trifluoromethyloxy)phenyl]-3-oxo-propyl]phenoxy]-2-methyl-propanoic acid]",body weight gain,ApoE2/E2 mouse,weight loss
same,plasma HDL-cholesterol,ApoE2/E2 mouse,significantly increased
same,plasma free fatty acids,ApoE2/E2 mouse,decreased very significantly
same,plasma total cholesterol,ApoE2/E2 mouse,significantly reduced
same,plasma triglycerides,ApoE2/E2 mouse,decreased very significantly
same,body weight gain,C57BI6 mouse,weight loss
same,plasma HDL-cholesterol,C57BI6 mouse,very significantly increased
same,plasma triglycerides,C57BI6 mouse,very significantly diminished
